Measurements reported in patent US20050119330A1, “Use of antiproliferative agents in the treatment and prevention of pulmonary proliferative vascular diseases” (priority 2003, published 2005).
Several values for one entry are separate records, joined by “and”; a condition that tells them apart may be missing. Equal entries are not always repeated.

Tests used:
[1] = tested on: pneumonectomized, monocrotaline-treated rats; assay: Chronic model of pulmonary arterial hypertension (monocrotaline four weeks after pneumonectomy), rescue treatment; assay type: in vivo
Method: Methods: Rats were treated as described in Example 1, except that monocrotaline was administered four weeks after pneumonectomy. Pulmonary hypertension developed at Week 8 and increased in severity until death at Week 13. […] Hemodynamic measurements were performed on control and treated rats in order to determine mean arterial pressures and pressures at the right ventricle.
A quantitative analysis of neointimal luminal obstruction on 25 consecutive small pulmonary arteries from each rat in Group N, PMV0w, PMV2w, PMS2w, PMS6w, and PMS13w was performed (FIGS. 10A-10D). Histological samples were prepared and stained using Elastin-van-Geison (EVG) stain, ×600. Vessels were assessed for neointimal proliferative lesions and scored: Grade 0 for no evidence of neointimal formation, Grade 1 for less than 50% luminal occlusion, Grade 2 for >50% luminal occlusion.

[2] = tested on: pneumonectomized, monocrotaline-treated rats; assay: Acute model of pulmonary arterial hypertension (left pneumonectomy, monocrotaline on Day 7); assay type: in vivo, Sprague-Dawley rats; conditions: for right ventricular systolic pressure (RVSP): Day 35; for mean pulmonary arterial pressure (mPAP): measured Day 35; for vascular occlusion score (VOS), 0 to 2: 25 consecutive small pulmonary arteries per rat
Method: Methods: On Day, 0, thirty pathogen-free 13-week-old, male Sprague-Dawley rats (350-400 g) were intubated, anesthetized with halothane (0.5%), and then underwent left pneumonectomy via thoracotomy as described in Faul, J. L. et al. (2000) Am. J. Respir. Crit. Care Med. 162:2252-2258; and Nishimura, R. et al., (2001) Am. J. Respir. Crit. Care Med. 163:498-502. On Day 7, rats received a single subcutaneous injection in the right hind limb of the plant alkaloid monocrotaline (60 mg/kg; Sigma, St. Louis, Mo.). Rats that were not subjected to any treatment were also included in the study (“normal” or “N”).
Twenty-four rats received monocrotaline (60 mg/kg s.c.), seven days after pneumonectomy. […] Rats that were not subjected to any treatment were also included in the study (“normal” or “N”). Rats in the control group, PMV (n=6), received vehicle (V) by oral gavage every day, beginning on Day 5.
On Day 35, rats underwent pulmonary artery catheterization for measurements of mean pulmonary artery pressures and right ventricular systolic pressures. Mean arterial, mean pulmonary arterial and right ventricular systolic blood pressures (mPAP and RVSP, respectively) were measured as described by Faul et al. and Nishimura et al. After exsanguination, the right lung, right ventricle and left ventricle plus septum were collected for histology. The organs were weighed and preserved and the RV/LV&S ratios determined. Organs fixed in formalin were embedded in paraffin, cut in 3 micron sections and stained with hematoxylin and eosin, and with elastin-von Geison stain.
The severity of neointimal formation was scored on elastin-van Geison (EVG)-stained lung sections: the absence of neointimal formation equals 0; the presence of neointimal proliferation causing less than 50% luminal narrowing equals 1; luminal narrowing greater than 50% equals 2. Immunohistochemistry was performed on formalin-fixed, paraffin-embedded lung sections using antibodies to α-smooth-muscle actin (Dako, 1:30 dilution, linked to alkaline phosphatase), and CD31, a monoclonal antibody with specificity for endothelial cells lining the vascular lumen (Dako, 1:40 dilution, detected using avidin-biotin-peroxidase method). Samples of right lung were immediately placed in 2.5% paraformaldehyde and routinely processed for transmission electron microscopy. Reverse-transcription PCR was used to amplify portions of the rat endothelial nitric oxide synthase gene (eNOS, GenBank U02534) and actin B (GenBank V01217) from rat lung. Primer sequences for eNOS were: 5′-[…]-3′ (SEQ ID NO:1) and 5′-[…]-3′ (SEQ ID NO:2). Five micrograms of total lung RNA were reverse-transcribed and amplified by PCR as described in Aoki, Y., et al. (1997) Am. J. Physiol. 272:L272-284. Endothelial NOS protein (60 μg) was analyzed by Western immunoblotting as described in Zhao, G. et al. (2000) Am. J. Physiol. 279:L958-L966, using anti-eNOS primary antibody (Santa Cruz sc-8311).

[3] = tested on: pneumonectomized, monocrotaline treated rats; conditions: Faul et al. 2000; Nishimura 2001; cited from earlier work
[4] = Group PMS2w: two weeks of treatment
[5] = Group PMS6w: 6 weeks of treatment
[6] = after 13 weeks of simvastatin treatment

Compound | mean pulmonary arterial pressure (mPAP) ([1]; Group PMS2w: 2 mg/kg/day for two weeks from Week 11) [mm Hg] | right ventricular systolic pressure (RVSP) [1, 4] [mmHg] | vascular occlusion score (VOS), 0 to 2 [1, 4] | mean pulmonary arterial pressure (mPAP) ([1]; Group PMS6w: 2 mg/kg/day for 6 weeks from Week 11) [mm Hg] | right ventricular systolic pressure (RVSP) [1, 5] [mmHg] | vascular occlusion score (VOS), 0 to 2 [1, 5] | vascular occlusion score (VOS), 0 to 2 ([1]; Group PMS13w: 13 weeks of treatment) | mean pulmonary arterial pressure (mPAP) [1, 6] [mm Hg] | right ventricular systolic pressure (RVSP) [1, 6] [mmHg] | survival ([1]; simvastatin 2 mg/kg/day oral gavage from Week 11, no mortality up to Week 23, vehicle 0% survival at Week 15) [%] | right ventricular systolic pressure (RVSP) ([2]; Group PMS5-14: 2 mg/kg/day oral gavage Days 5-14) [mm Hg] | mean pulmonary arterial pressure (mPAP) ([2]; Group PMS5-14: simvastatin 2 mg/kg/day oral gavage Days 5-14) [mm Hg] | vascular occlusion score (VOS), 0 to 2 ([2]; Group PMS5-14) | right ventricular systolic pressure (RVSP) ([2]; Group PMS5-35: 40 mg/kg/day oral gavage Days 5-35) [mm Hg] | mean pulmonary arterial pressure (mPAP) ([2]; Group PMS5-35: simvastatin 40 mg/kg/day oral gavage Days 5-35) | vascular occlusion score (VOS), 0 to 2 ([2]; Group PMS5-35) | right ventricular systolic pressure (RVSP) ([2]; Group PMS15-35: 40 mg/kg/day oral gavage Days 15-35) [mm Hg] | mean pulmonary arterial pressure (mPAP) ([2]; Group PMS15-35: simvastatin 40 mg/kg/day oral gavage Days 15-35) [mm Hg] | vascular occlusion score (VOS), 0 to 2 ([2]; Group PMS15-35) | development of pulmonary arterial hypertension and neointimal formation [3]
CCC(C)(C)C(=O)O[C@H]1C[C@@H](C)C=C2C=C[C@H](C)[C@H](CC[C@@H]3C[C@@H](O)CC(=O)O3)[C@H]21 [simvastatin] | 36±2 | 53±7 | 1.34 | 24±3 | 34±3 | 0.83 | 0.65 | 22±3 | 30±3 | 100 | 66±12 | 44±4 | 0.78±0.40 | 37±4 | 27±3 mm Hg and 27 mm Hg | 1.5 and 0.59±0.46 | 54±10 | 38±3 | 0.93±0.38 | 
CC(C)[C@]12O[C@H]1[C@@H]1O[C@]13[C@]1(O[C@H]1C[C@H]1C4=C(CC[C@@]13C)C(=O)OC4)[C@@H]2O [triptolide] |  |  |  |  |  |  |  |  |  |  |  |  |  |  |  |  |  |  |  | could inhibit the development of pulmonary arterial hypertension and neointimal formation
